Results on seven molecules are retold here after ChEMBL document CHEMBL5303304, “EUbOPEN Chemogenomics Library - IncuCyte” (2023).

What all share (format): toxicity, cell-based
Series [1] concerns U2OS. Briefly: Incucyte cell viability with U2OS. The conditions noted are these: human, 10 µM, compound concentration 10 uM.
Series [2] concerns Fibroblast. Briefly: Incucyte cell viability with human fibroblast. The conditions noted are these: 10 µM, compound concentration 10 uM.
Series [3] concerns HEK-293T. Briefly: Incucyte cell viability with HEK293T. The conditions noted are these: human, 10 µM, compound concentration 10 uM.
Note: unitless GR value; below 1 slowed growth and below 0 cell loss.

Consider `Cc1cccc(F)c1C(=O)Nc1cnc(-c2cc3c(cc2Cl)OC(F)(F)O3)cn1` [ZEGOCRACTIN], for which the “Growth Rate” value is listed as 0.13 in series [1] (0 h, replicate number 1); -0.79 in series [1] (0 h, replicate number 2); 0.26 in series [1] (6 h, replicate number 1); 0.28 in series [1] (6 h, replicate number 2); 0.45 in series [1] (12 h, replicate number 1); 0.78 in series [1] (12 h, replicate number 2). Further, the “Growth Rate” value is on record as 0.72 in series [1] (18 h, replicate number 1); 0.9 in series [1] (18 h, replicate number 2); 0.8 in series [1] (24 h, replicate number 1); 0.92 in series [1] (24 h, replicate number 2); -0.42 in series [2] (0 h, replicate number 2); -0.57 in series [2] (6 h, replicate number 2). Also, the “Growth Rate” value is -0.81 in series [2] (12 h, replicate number 1); 0.2 in series [2] (12 h, replicate number 2); 0.77 in series [2] (18 h, replicate number 1); 0.4 in series [2] (18 h, replicate number 2); 0.84 in series [2] (24 h, replicate number 1); 0.26 in series [2] (24 h, replicate number 2). The “Growth Rate” value is -0.06 in series [3] (6 h, replicate number 1); -0.48 in series [3] (6 h, replicate number 2); 0.19 in series [3] (12 h, replicate number 1); -0.06 in series [3] (12 h, replicate number 2); 0.24 in series [3] (18 h, replicate number 1); 0.31 in series [3] (18 h, replicate number 2). Also, the “Growth Rate” value in series [3] (24 h, replicate number 1) is on record as 0.34.
As for `CN(C)CC#Cc1ccc2[nH]c3c(c2c1)-c1nc(N)ncc1CCC3`, the “Growth Rate” value in series [1] (0 h, replicate number 1) is given as -0.89; in series [1] (6 h, replicate number 2) it was 0.82; in series [1] (12 h, replicate number 1), 0.96; in series [1] (12 h, replicate number 2) it was 0.59; in series [1] (18 h, replicate number 1), 0.86; in series [1] (18 h, replicate number 2), 0.45. Moreover, the “Growth Rate” value is recorded as 0.86 in series [1] (24 h, replicate number 1); 0.36 in series [1] (24 h, replicate number 2); -1 in series [2] (0 h, replicate number 1); 0.76 in series [2] (6 h, replicate number 1); 0.45 in series [2] (12 h, replicate number 1); 0.69 in series [2] (12 h, replicate number 2). Moreover, the “Growth Rate” value is recorded as 0.27 in series [2] (18 h, replicate number 1); 0.42 in series [2] (18 h, replicate number 2); 0.2 in series [2] (24 h, replicate number 1); 0.33 in series [2] (24 h, replicate number 2); -0.2 in series [3] (0 h, replicate number 1); 0.54 in series [3] (0 h, replicate number 2). For the same molecule, the “Growth Rate” value in series [3] (6 h, replicate number 1) is on record as -0.19; in series [3] (6 h, replicate number 2), -0.58; in series [3] (12 h, replicate number 1), -0.03; in series [3] (12 h, replicate number 2), -0.38; in series [3] (18 h, replicate number 1), 0.11; in series [3] (18 h, replicate number 2), -0.23. In addition, the “Growth Rate” value in series [3] (24 h, replicate number 1) was 0.12; in series [3] (24 h, replicate number 2) it was -0.05.
As for `CC[C@@H](Nc1c(C#N)c(-c2ccc(-c3cccc(C)c3F)cc2)nc2cnccc12)C(=O)O` [BAY-091], the “Growth Rate” value in series [1] (6 h, replicate number 1) is 0.82; in series [1] (12 h, replicate number 1), 0.7; in series [1] (18 h, replicate number 1), 0.68; in series [1] (24 h, replicate number 1), 0.81; in series [2] (0 h, replicate number 1) it was -0.38; in series [2] (0 h, replicate number 2), -0.33. In addition, the “Growth Rate” value in series [2] (6 h, replicate number 1) was found to be 0.59; in series [2] (6 h, replicate number 2) it was 0.39; in series [2] (12 h, replicate number 1), 0.86; in series [2] (12 h, replicate number 2) it was 0.58; in series [2] (18 h, replicate number 1), 0.96; in series [2] (18 h, replicate number 2), 0.73. The “Growth Rate” value is 0.88 in series [2] (24 h, replicate number 1); 0.84 in series [2] (24 h, replicate number 2); 0.76 in series [3] (0 h, replicate number 2); 0.68 in series [3] (6 h, replicate number 1); 0.63 in series [3] (6 h, replicate number 2); 0.65 in series [3] (12 h, replicate number 1). Moreover, the “Growth Rate” value worked out at 0.85 in series [3] (12 h, replicate number 2); 0.86 in series [3] (18 h, replicate number 1); 0.85 in series [3] (18 h, replicate number 2); 0.78 in series [3] (24 h, replicate number 1); 0.88 in series [3] (24 h, replicate number 2).
Turning to `CNCc1ccc(-c2cc(-c3nc(-c4ccc(S(=O)(=O)C(C)C)cc4)cnc3N)on2)cc1` [BERZOSERTIB], the “Growth Rate” value is given as -1 in series [1] (0 h, replicate number 1); -0.83 in series [1] (12 h, replicate number 1); 0.45 in series [1] (12 h, replicate number 2); 0.15 in series [1] (18 h, replicate number 1); 0.23 in series [1] (18 h, replicate number 2); 0.31 in series [1] (24 h, replicate number 1). In addition, the “Growth Rate” value in series [1] (24 h, replicate number 2) is 0.19; in series [2] (0 h, replicate number 1), -1; in series [2] (12 h, replicate number 2), 0.24; in series [2] (18 h, replicate number 1) it was 0.32; in series [2] (18 h, replicate number 2) it was -0.14; in series [2] (24 h, replicate number 1) it was -0.05. For the same molecule, the “Growth Rate” value in series [2] (24 h, replicate number 2) is reported as -0.29; in series [3] (0 h, replicate number 2), -0.99; in series [3] (6 h, replicate number 1), -0.67; in series [3] (6 h, replicate number 2) it was -0.05; in series [3] (12 h, replicate number 1) it was -0.49; in series [3] (12 h, replicate number 2), -0.51. Also, the “Growth Rate” value in series [3] (18 h, replicate number 1) is -0.3; in series [3] (18 h, replicate number 2) it was -0.38; in series [3] (24 h, replicate number 1), -0.24; in series [3] (24 h, replicate number 2), -0.26.
Regarding `C=C(C)[C@H]1CN[C@H](C(=O)O)[C@H]1CC(=O)O` [KAINIC ACID], the “Growth Rate” value in series [1] (0 h, replicate number 2) was -0.65; in series [1] (6 h, replicate number 1) it was 0.42; in series [1] (18 h, replicate number 2), 0.9; in series [1] (24 h, replicate number 1), 0.98; in series [2] (0 h, replicate number 1) it was -0.12; in series [2] (0 h, replicate number 2) it was 0.92. In addition, the “Growth Rate” value in series [2] (6 h, replicate number 1) stood at 0.61; in series [2] (6 h, replicate number 2), 0.16; in series [2] (12 h, replicate number 2) it was 0.83; in series [2] (18 h, replicate number 1), 0.63; in series [2] (18 h, replicate number 2) it was 0.79; in series [2] (24 h, replicate number 1), 0.76. Also, the “Growth Rate” value in series [2] (24 h, replicate number 2) is reported as 0.8; in series [3] (6 h, replicate number 1), 0.6; in series [3] (12 h, replicate number 1) it was 0.52; in series [3] (18 h, replicate number 1), 0.62; in series [3] (18 h, replicate number 2), 0.99; in series [3] (24 h, replicate number 1), 0.8.
With `Cn1cncc1-c1cn(-c2cccc(C(=O)Nc3cccc(C(F)(F)F)c3)c2)nn1`, the “Growth Rate” value in series [1] (0 h, replicate number 2) is given as 0.55; in series [1] (6 h, replicate number 1), 0.83; in series [1] (12 h, replicate number 2) it was 0.86; in series [1] (18 h, replicate number 2), 0.89; in series [1] (24 h, replicate number 1) it was 0.95; in series [2] (6 h, replicate number 2), 0.53. The “Growth Rate” value in series [2] (12 h, replicate number 1) was 0.87; in series [2] (12 h, replicate number 2), 0.77; in series [2] (18 h, replicate number 1), 0.87; in series [2] (18 h, replicate number 2) it was 0.64; in series [2] (24 h, replicate number 1), 0.48; in series [2] (24 h, replicate number 2), 0.87. The “Growth Rate” value is -0.32 in series [3] (6 h, replicate number 1); -0.41 in series [3] (6 h, replicate number 2); -0.13 in series [3] (12 h, replicate number 1); 0.03 in series [3] (12 h, replicate number 2); 0.06 in series [3] (18 h, replicate number 1); 0.14 in series [3] (18 h, replicate number 2). In addition, the “Growth Rate” value in series [3] (24 h, replicate number 1) came to 0.24; in series [3] (24 h, replicate number 2), 0.3.
Take `Cc1onc(-c2ccc(F)cc2)c1COc1ccc(C(=O)N2CCS(=O)(=O)CC2)cn1` [BASMISANIL]: the “Growth Rate” value in series [1] (6 h, replicate number 1) is reported as 0.73; in series [1] (6 h, replicate number 2), 0.62; in series [1] (12 h, replicate number 1) it was 0.73; in series [1] (12 h, replicate number 2) it was 0.8; in series [1] (18 h, replicate number 1), 0.87; in series [1] (18 h, replicate number 2), 0.98. Also, the “Growth Rate” value is reported as 0.86 in series [1] (24 h, replicate number 1); 0.82 in series [1] (24 h, replicate number 2); -0.96 in series [2] (0 h, replicate number 2); -0.92 in series [2] (6 h, replicate number 2); -1 in series [2] (12 h, replicate number 1); 0.69 in series [2] (12 h, replicate number 2). In addition, the “Growth Rate” value is reported as -0.07 in series [2] (18 h, replicate number 1); 0.2 in series [3] (6 h, replicate number 2); 0.86 in series [3] (12 h, replicate number 2); 0.92 in series [3] (18 h, replicate number 2); 0.97 in series [3] (24 h, replicate number 1); 0.94 in series [3] (24 h, replicate number 2).
